# Assay results: article PMC10006169, “A phase I trial of LXS196, a protein kinase C (PKC) inhibitor, for metastatic uveal melanoma” (British Journal of Cancer, 2023)
# “And” between values parts separate entries of the source, which are not always exact repeats. Identical values can stand only once.
# Test system: patients with MUM
# Test: Adverse events regardless of study drug relationship
# Assay type: in vivo, human
# Description: Routine safety assessments, including laboratory assessments, physical examinations, vital signs and electrocardiograms (ECGs), were conducted at regular intervals throughout the study and more frequently as needed following patient assessment by the treating physician. Adverse events (AEs) were assessed continuously according to the National Cancer Institute Common Terminology Criteria for Adverse Events (NCI-CTCAE) v4.03.
structure (smiles),measurement,setting,value
CC1(N)CCN(c2cccnc2NC(=O)c2nc(-c3ncccc3C(F)(F)F)cnc2N)CC1 [LXS196],"ALT increased, all grades",All BID,9 (30.0) n (%)
same,"ALT increased, grade ≥3",All BID,2 (6.7) n (%)
same,"AST increased, all grades",All BID,8 (26.7) n (%)
same,"AST increased, grade ≥3",All BID,3 (10.0) n (%)
same,"Abdominal pain upper, all grades",All BID,3 (10.0) n (%)
same,"Abdominal pain upper, grade ≥3",All BID,0 n (%)
same,"Asthenia, all grades",All BID,7 (23.3) n (%)
same,"Asthenia, grade ≥3",All BID,0 n (%)
same,"Blood creatinine increased, all grades",All BID,5 (16.7) n (%)
same,"Blood creatinine increased, grade ≥3",All BID,0 n (%)
same,"Constipation, all grades",All BID,7 (23.3) n (%)
same,"Constipation, grade ≥3",All BID,0 n (%)
same,"Decreased appetite, all grades",All BID,5 (16.7) n (%)
same,"Decreased appetite, grade ≥3",All BID,0 n (%)
same,"Dermatitis acneiform, all grades",All BID,5 (16.7) n (%)
same,"Dermatitis acneiform, grade ≥3",All BID,0 n (%)
same,"Diarrhoea, all grades",All BID,17 (56.7) n (%)
same,"Diarrhoea, grade ≥3",All BID,1 (3.3) n (%)
same,"Dry skin, all grades",All BID,6 (20.0) n (%)
same,"Dry skin, grade ≥3",All BID,0 n (%)
same,"Fatigue, all grades",All BID,7 (23.3) n (%)
same,"Fatigue, grade ≥3",All BID,0 n (%)
same,"Hypotension, all grades",All BID,7 (23.3) n (%)
same,"Hypotension, grade ≥3",All BID,1 (3.3) n (%)
same,"Nasopharyngitis, all grades",All BID,3 (10.0) n (%)
same,"Nasopharyngitis, grade ≥3",All BID,0 n (%)
same,"Nausea, all grades",All BID,21 (70.0) n (%)
same,"Nausea, grade ≥3",All BID,0 n (%)
same,"Neutropenia, all grades",All BID,2 (6.7) n (%)
same,"Neutropenia, grade ≥3",All BID,0 n (%)
same,"Oedema peripheral, all grades",All BID,8 (26.7) n (%)
same,"Oedema peripheral, grade ≥3",All BID,1 (3.3) n (%)
same,"Patients with ≥1 AE, all grades",All BID,30 (100) n (%)
same,"Patients with ≥1 AE, grade ≥3",All BID,15 (50.0) n (%)
same,"Rash, all grades",All BID,6 (20.0) n (%)
same,"Rash, grade ≥3",All BID,0 n (%)
same,"Vomiting, all grades",All BID,11 (36.7) n (%)
same,"Vomiting, grade ≥3",All BID,0 n (%)
same,"ALT increased, all grades",All QD,9 (23.7) n (%)
same,"ALT increased, grade ≥3",All QD,2 (5.3) n (%)
same,"AST increased, all grades",All QD,5 (13.2) n (%)
same,"AST increased, grade ≥3",All QD,2 (5.3) n (%)
same,"Abdominal pain upper, all grades",All QD,4 (10.5) n (%)
same,"Abdominal pain upper, grade ≥3",All QD,0 n (%)
same,"Asthenia, all grades",All QD,8 (21.1) n (%)
same,"Asthenia, grade ≥3",All QD,0 n (%)
same,"Blood creatinine increased, all grades",All QD,3 (7.9) n (%)
same,"Blood creatinine increased, grade ≥3",All QD,0 n (%)
same,"Constipation, all grades",All QD,10 (26.3) n (%)
same,"Constipation, grade ≥3",All QD,0 n (%)
same,"Decreased appetite, all grades",All QD,5 (13.2) n (%)
same,"Decreased appetite, grade ≥3",All QD,0 n (%)
same,"Dermatitis acneiform, all grades",All QD,2 (5.3) n (%)
same,"Dermatitis acneiform, grade ≥3",All QD,0 n (%)
same,"Diarrhoea, all grades",All QD,20 (52.6) n (%)
same,"Diarrhoea, grade ≥3",All QD,0 n (%)
same,"Dry skin, all grades",All QD,3 (7.9) n (%)
same,"Dry skin, grade ≥3",All QD,0 n (%)
same,"Fatigue, all grades",All QD,12 (31.6) n (%)
same,"Fatigue, grade ≥3",All QD,0 n (%)
same,"Hypotension, all grades",All QD,8 (21.1) n (%)
same,"Hypotension, grade ≥3",All QD,5 (13.2) n (%)
same,"Nasopharyngitis, all grades",All QD,4 (10.5) n (%)
same,"Nasopharyngitis, grade ≥3",All QD,0 n (%)
same,"Nausea, all grades",All QD,27 (71.1) n (%)
same,"Nausea, grade ≥3",All QD,1 (2.6) n (%)
same,"Neutropenia, all grades",All QD,5 (13.2) n (%)
same,"Neutropenia, grade ≥3",All QD,2 (5.3) n (%)
same,"Oedema peripheral, all grades",All QD,5 (13.2) n (%)
same,"Oedema peripheral, grade ≥3",All QD,0 n (%)
same,"Patients with ≥1 AE, all grades",All QD,36 (94.7) n (%)
same,"Patients with ≥1 AE, grade ≥3",All QD,14 (36.8) n (%)
same,"Rash, all grades",All QD,4 (10.5) n (%)
same,"Rash, grade ≥3",All QD,0 n (%)
same,"Vomiting, all grades",All QD,15 (39.5) n (%)
same,"Vomiting, grade ≥3",All QD,1 (2.6) n (%)
same,"ALT increased, all grades",All patients,18 (26.5) n (%)
same,"ALT increased, grade ≥3",All patients,4 (5.9) n (%)
same,"AST increased, all grades",All patients,13 (19.1) n (%)
same,"AST increased, grade ≥3",All patients,5 (7.4) n (%)
same,"Abdominal pain upper, all grades",All patients,7 (10.3) n (%)
same,"Abdominal pain upper, grade ≥3",All patients,0 n (%)
same,"Asthenia, all grades",All patients,15 (22.1) n (%)
same,"Asthenia, grade ≥3",All patients,0 n (%)
same,"Blood creatinine increased, all grades",All patients,8 (11.8) n (%)
same,"Blood creatinine increased, grade ≥3",All patients,0 n (%)
same,"Constipation, all grades",All patients,17 (25.0) n (%)
same,"Constipation, grade ≥3",All patients,0 n (%)
same,"Decreased appetite, all grades",All patients,10 (14.7) n (%)
same,"Decreased appetite, grade ≥3",All patients,0 n (%)
same,"Dermatitis acneiform, all grades",All patients,7 (10.3) n (%)
same,"Dermatitis acneiform, grade ≥3",All patients,0 n (%)
same,"Diarrhoea, all grades",All patients,37 (54.4) n (%)
same,"Diarrhoea, grade ≥3",All patients,1 (1.5) n (%)
same,"Dry skin, all grades",All patients,9 (13.2) n (%)
same,"Dry skin, grade ≥3",All patients,0 n (%)
same,"Fatigue, all grades",All patients,19 (27.9) n (%)
same,"Fatigue, grade ≥3",All patients,0 n (%)
same,"Hypotension, all grades",All patients,15 (22.1) n (%)
same,"Hypotension, grade ≥3",All patients,6 (8.8) n (%)
same,"Nasopharyngitis, all grades",All patients,7 (10.3) n (%)
same,"Nasopharyngitis, grade ≥3",All patients,0 n (%)
same,"Nausea, all grades",All patients,48 (70.6) n (%)
same,"Nausea, grade ≥3",All patients,1 (1.5) n (%)
same,"Neutropenia, all grades",All patients,7 (10.3) n (%)
same,"Neutropenia, grade ≥3",All patients,2 (2.9) n (%)
same,"Oedema peripheral, all grades",All patients,13 (19.1) n (%)
same,"Oedema peripheral, grade ≥3",All patients,1 (1.5) n (%)
same,"Patients with ≥1 AE, all grades",All patients,66 (97.1) n (%)
same,"Patients with ≥1 AE, grade ≥3",All patients,29 (42.6%) n (%) and 29 (42.6) n (%)
same,"Rash, all grades",All patients,10 (14.7) n (%)
same,"Rash, grade ≥3",All patients,0 n (%)
same,"Vomiting, all grades",All patients,26 (38.2) n (%)
same,"Vomiting, grade ≥3",All patients,1 (1.5) n (%)
same,AE leading to discontinuation of LXS196,"SAE grade 3/4, one patient, BID schedule",hepatic failure
